Here are results for 30 compounds from patent publication US20230250096A1, “SUBSTITUTED PHENYL-1H-PYRROLO[2,3-c] PYRIDINE DERIVATIVES” (Janssen Pharmaceutica NV, priority 2021, published 2023).

Experiment [1] concerns the target T1, menin/MLL (terbium chelate-labeled menin, FITC-MBM1 peptide) (Homo sapiens, UniProt O00255, T541A).
T1 construct: Menin (a.a 1-610-6xhis tag, 2.3 mg/mL in 20 mM Hepes)
T1 sequence (O00255 with tags, fused parts or gaps T541A): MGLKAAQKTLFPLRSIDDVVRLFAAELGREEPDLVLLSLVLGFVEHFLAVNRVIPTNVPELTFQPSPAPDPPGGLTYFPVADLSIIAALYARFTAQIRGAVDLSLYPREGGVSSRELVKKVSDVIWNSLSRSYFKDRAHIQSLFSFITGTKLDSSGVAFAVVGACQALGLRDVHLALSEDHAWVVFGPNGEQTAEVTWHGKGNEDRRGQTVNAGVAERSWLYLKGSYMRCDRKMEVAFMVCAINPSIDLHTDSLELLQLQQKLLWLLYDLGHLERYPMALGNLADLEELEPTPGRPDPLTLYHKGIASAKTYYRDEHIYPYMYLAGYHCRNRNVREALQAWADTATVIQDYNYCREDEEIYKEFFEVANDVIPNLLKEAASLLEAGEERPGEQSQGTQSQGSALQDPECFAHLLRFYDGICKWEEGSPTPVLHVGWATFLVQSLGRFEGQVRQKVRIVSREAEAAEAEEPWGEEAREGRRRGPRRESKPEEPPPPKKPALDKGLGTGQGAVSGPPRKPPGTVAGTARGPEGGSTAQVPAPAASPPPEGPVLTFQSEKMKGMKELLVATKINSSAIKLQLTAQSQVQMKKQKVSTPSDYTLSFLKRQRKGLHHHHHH
Kind of experiment: Menin/MLL homogenous time-resolved fluorescence (HTRF) assay. The format is binding. The settings on record: 30 min incubation. The gist of the method:
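Competition binding read by time-resolved FRET (FITC 520 nm over terbium 490 nm) after compound meets labeled menin 1-610-His […] for 30 min, then FITC-MBM1 (75 nM) for 15 min, ambient temperature, 0.5% DMSO. Eleven-point four-fold dilutions, usually starting at 10 μM, fitted to four-parameter curves for IC50.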
A general note: TR-FRET usually uses a lanthanide donor and a delayed reading to cut background.

A further experiment concerns MEIS1 mRNA expression. Kind of experiment: MEIS1 mRNA expression assay (Quantigene Singleplex) in MOLM14 cells. The settings on record: 48 hours incubation. The format is cell-based, human. An outline of the steps: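 Read-out: MEIS1 transcript counts, background-subtracted and divided by RPL28, expressed as fold change over DMSO-treated cells, then dose-response modelled for IC50. MOLM14 cells (3,750/well) received graded compound for 48 h before lysis and QuantiGene hybridization at 55 °C.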

In the case of `Cc1cncc2c1c(CC1CN(CC3CCOCC3)C1)cn2-c1ccc(F)cc1C(=O)N1CCC(O)C1(C)C` (stereo not drawn) [Compound 272], the IC50 in experiment [1] is 0.31 nM; with MEIS1 mRNA expression (Homo sapiens, MOLM-14, 48 h), around 270 nM.
With `Cc1cncc2c1c(C[C@@H]1CCN(CC3CCOCC3)C1)cn2-c1ccc(F)cc1C(=O)N1CCC[C@]1(C)CO` (single isomer, unassigned) [Compound 362a], the IC50 was found to be 0.149 nM in experiment [1] and 184 nM in the experiment with MEIS1 mRNA expression (Homo sapiens, MOLM-14, 48 h).
The corresponding values for `Cc1cncc2c1c(CC1CN(CC3CNCC(=O)C3)C1)cn2-c1ccc(F)cc1C(=O)N(C)C(C)C` (stereo not drawn) [Compound 196] are 0.19 nM and 438 nM.
In the case of `CC(=O)N1CCN(CCC[C@H](C(C)C)N2CC[C@@H](Cc3cn(-c4ccc(F)cc4C(=O)N(C)C(C)C)c4cncc(C)c34)C2)CC1` (single isomer, unassigned) [Compound 8a], the IC50 in experiment [1] came out at 0.024 nM; with MEIS1 mRNA expression (Homo sapiens, MOLM-14, 48 h) it was 13 nM.
`CC(=O)N1C[C@@H]2[C@@H](CN3CC[C@@H](Cc4cn(-c5ccc(F)cc5C(=O)N(C)C(C)C)c5cncc(C)c45)C3)[C@@H]2C1` [Compound 187]: the IC50 stood at 1.02 nM in experiment [1] and 1940 nM in the experiment with MEIS1 mRNA expression (Homo sapiens, MOLM-14, 48 h).
On the same counts, the results for `CCN(C(=O)c1cc(F)ccc1-n1cc(CC2CN(C(C(C)C)[C@H]3C[C@H](N4CCN(C(C)=O)CC4)C3)C2)c2c(C)cncc21)C(C)C` (stereo partly drawn) [Compound 35b] are 0.077 nM and 47 nM.
The corresponding values for `CC(=O)N1C[C@@H]2CN([C@H]3C[C@@H](CN4CC[C@H](Cc5cn(-c6ccc(F)cc6C(=O)N(C)C(C)C)c6cncc(C)c56)C4)C3)C[C@H]2C1` (single isomer, unassigned) [Compound 31] are 0.052 nM and around 470 nM.
Regarding `Cc1cncc2c1c(C[C@@H]1CCN(CC3CCN(C(=O)C(C)(C)O)CC3)C1)cn2-c1ccc(F)cc1C(=O)N1CCC2CC21` (stereo partly drawn) [Compound 341], the IC50 worked out at 0.037 nM in experiment [1] and 20 nM in the experiment with MEIS1 mRNA expression (Homo sapiens, MOLM-14, 48 h).
As for `Cc1cncc2c1c(CC1CNC(CC3CCOCC3)C1)cn2-c1ccc(F)cc1C(=O)N(C)C(C)C` (single isomer, unassigned) [Compound 134c], the IC50 in experiment [1] is 0.073 nM; with MEIS1 mRNA expression, 119 nM.
Turning to `Cc1cncc2c1c(CC1CN(CC3CCC4(CC3)OCCO4)C1)cn2-c1ccc(F)cc1C(=O)N(C)C(C)C` [Compound 92], the IC50 in experiment [1] was 0.219 nM; in the experiment on MEIS1 mRNA expression (Homo sapiens, MOLM-14, 48 h) it was 52 nM.
The corresponding values for `Cc1cncc2c1c(CC1CN(C[C@H]3CC[C@H](NS(C)(=O)=O)CC3)C1)cn2-c1ccc(F)cc1C(=O)N(C)C(C)C` [Compound 115] are 0.021 nM and 11 nM.
On the same counts, the results for `CC(=O)N1CCC(CN2CC[C@@H](Cc3cn(-c4ccc(F)cc4[S@@]4(=O)=NCCC4)c4cncc(C)c34)C2)CC1` (single isomer, unassigned) [Compound 214a] are 1.29 nM and around 605 nM.
The corresponding values for `Cc1cncc2c1c(CC1CN([C@@H](C(C)C)[C@H]3C[C@@H](N4CCN(S(C)(=O)=O)CC4)C3)C1)cn2-c1ccc(F)cc1C(=O)N(C)C(C)C` (single isomer, unassigned) [Compound 34a] are 0.019 nM and 16 nM.
`COC[C@@H](C1CCCCO1)N1CC[C@@H](Cc2cn(-c3ccc(F)cc3C(=O)N(C)C(C)C)c3cncc(C)c23)C1` (single isomer, unassigned) [Compound 165a]: the IC50 in experiment [1] was 0.173 nM; in the experiment on MEIS1 mRNA expression (Homo sapiens, MOLM-14, 48 h) it was around 180 nM.
On to `COCCN(C)CCC[C@H](C(C)C)N1CC[C@H](Cc2cn(-c3ccc(F)cc3C(=O)N(C)C(C)C)c3cncc(C)c23)C1` (single isomer, unassigned) [Compound 2a], for which the IC50 in experiment [1] is 0.024 nM; with MEIS1 mRNA expression (Homo sapiens, MOLM-14, 48 h), 36 nM.
Consider `CC(=O)N1C[C@@H]2CN([C@H]3C[C@@H](CN4CC[C@@H](Cc5cn(-c6ccc(F)cc6C(=O)N(C)C(C)C)c6cncc(C)c56)C4)C3)C[C@H]2C1` (single isomer, unassigned) [Compound 30], for which the IC50 in experiment [1] was around 0.49 nM; in the experiment on MEIS1 mRNA expression (Homo sapiens, MOLM-14, 48 h), above 1000 nM.
For the compound `Cc1cncc2c1c(C[C@@H]1CCN(CC3COC3)C1)cn2-c1ccc(F)cc1C(=O)N(C)C(C)C` (single isomer, unassigned) [Compound 46], the half-maximal inhibitory concentration (IC50) in experiment [1] was determined as 0.047 nM; in the experiment on MEIS1 mRNA expression (Homo sapiens, MOLM-14, 48 h), 92 nM.
On the same counts, the results for `COC(=O)N1CCC(CN2CC(Cc3cn(-c4ccc(F)cc4C(=O)N(C)C(C)C)c4cncc(C)c34)C2)CC1` [Compound 65] are 0.079 nM and 45 nM.
On the same counts, the results for `Cc1cncc2c1c(CC1CN(CC3CCOCC3)C1)cn2-c1ccc(F)cc1C(=O)N1CC2(O)CC1C2` [Compound 273] are 1.08 nM and above 1000 nM.
On the same counts, the results for `CC(=O)N1CCC(C2(CN3CC(Cc4cn(-c5ccc(F)cc5C(=O)N(C)C(C)C)c5cncc(C)c45)C3)CC2)CC1` [Compound 298] are 0.083 nM and 178 nM.
In the case of `Cc1cncc2c1c(C[C@@H]1CCN(C[C@H]3CCNC(=O)CC3)C1)cn2-c1ccc(F)cc1C(=O)N1CCC2CC21` (single isomer, unassigned) [Compound 351a], the IC50 worked out at 0.04 nM in experiment [1] and 12 nM with MEIS1 mRNA expression (Homo sapiens, MOLM-14, 48 h).
As for `Cc1cncc2c1c(C[C@@H]1CCN(CC3CCN(C(=O)C4(O)CC4)CC3)C1)cn2-c1ccc(F)cc1C(=O)N(C)C(C)C` [Compound 249], the concentration for half-maximal inhibition (IC50) worked out at 0.023 nM in experiment [1] and 7 nM in the experiment with MEIS1 mRNA expression (Homo sapiens, MOLM-14, 48 h).
`Cc1cncc2c1c(CC1CN([C@H]3CCN4C(=O)CCC4C3)C1)cn2-c1ccc(F)cc1C(=O)N(C)C(C)C` (single isomer, unassigned) [Compound 309b]: the IC50 was 0.111 nM in experiment [1] and above 1000 nM in the experiment with MEIS1 mRNA expression (Homo sapiens, MOLM-14, 48 h).
The corresponding values for `CC(=O)N1CCC([C@H](C)N2CC(Cc3cn(-c4ccc(F)cc4C(=O)N(C)C(C)C)c4cncc(C)c34)C2)CC1` (single isomer, unassigned) [Compound 151] are 3.77 nM and 1350 nM.
On the same counts, the results for `Cc1cncc2c1c(CC1CN(CC3CCN(C(=O)OC(C)(C)C)CC3)C1)cn2-c1ccc(F)cc1C(=O)N(C)C(C)C` [Compound 62] are 0.085 nM and 14 nM.
On the same counts, the results for `Cc1cncc2c1c(C[C@H]1CCN([C@@H](C)C3CCOCC3)C1)cn2-c1ccc(F)cc1[S@](=N)(=O)C(C)C` (single isomer, unassigned) [Compound 181b] are 4.58 nM and 1910 nM.
Turning to `Cc1ccc(CN2CC(Cc3cn(-c4ccc(F)cc4C(=O)N(C)C(C)C)c4cncc(C)c34)C2)nn1` [Compound 284], the concentration for half-maximal inhibition (IC50) is 4.19 nM in experiment [1] and around 2360 nM in the experiment on MEIS1 mRNA expression (Homo sapiens, MOLM-14, 48 h).
Regarding `CC(=O)N1CCC(C)C(N2CC[C@@H](Cc3cn(-c4ccc(F)cc4C(=O)N(C)C(C)C)c4cncc(C)c34)C2)C1` (stereo partly drawn) [Compound 243], the results for the concentration for half-maximal inhibition (IC50) (in experiment [1]; in the experiment with MEIS1 mRNA expression) were 0.097 nM and 37 nM, respectively.
On the same counts, the results for `CCC([C@H]1C[C@@H](N2C[C@H]3CN(C(C)=O)C[C@@H]3C2)C1)N1CC[C@@H](Cc2cn(-c3ccc(F)cc3C(=O)N(C)C(C)C)c3cncc(Cl)c23)C1` (stereo partly drawn) [Compound 26b] are around 0.036 nM and 29 nM.
With `CC(=O)N1CCCC(N2CC(Cc3cn(-c4ccc(F)cc4C(=O)N(C)C(C)C)c4cncc(C)c34)C2)CC1` (stereo not drawn) [Compound 295], the IC50 in experiment [1] was determined as 0.171 nM; with MEIS1 mRNA expression (Homo sapiens, MOLM-14, 48 h), 338 nM.

A word on the IC50: it is the midpoint of a concentration-inhibition curve.
